Experimental data reported in patent US4404201A, “Cephalosporins” (Warner-Lambert Company, priority 1981, dated 1983).

Key:
Type in all cases: cell-based
[1] = system: Entero Cloac. IM 11; test: Minimal Inhibitory Concentration, Entero Cloac. IM 11; conditions: sodium salt
[2] = system: Pseudomonas #28; test: Minimal Inhibitory Concentration, Pseudomonas #28; conditions: sodium salt
[3] = system: Klebs. Pneum. MGH 2; test: Minimal Inhibitory Concentration, Klebs. Pneum. MGH 2; conditions: sodium salt
[4] = system: Pseudomonas UI 18; test: Minimal Inhibitory Concentration, Pseudomonas UI 18; conditions: UI18, sodium salt
[5] = system: E. Coli Vogel; test: Minimal Inhibitory Concentration, E. Coli Vogel; conditions: Escherichia coli, sodium salt
[6] = system: E. Coli Brig; test: Minimal Inhibitory Concentration, E. Coli Brig; conditions: Escherichia coli, sodium salt
[7] = system: Prot Vulg.; test: Minimal Inhibitory Concentration, Prot Vulg.; conditions: sodium salt
[8] = system: Staph S 18713; test: Minimal Inhibitory Concentration, Staph S 18713; conditions: sodium salt
[9] = system: Strep. fec. MGH 2; test: Minimal Inhibitory Concentration, Strep. fec. MGH 2; conditions: sodium salt
[10] = system: Pseudomonas BRK 12-4-4; test: Minimal Inhibitory Concentration, Pseudomonas BRK 12-4-4; conditions: BRK1244, sodium salt
[11] = system: Serr. Mar. IMM 16; test: Minimal Inhibitory Concentration, Serr. Mar. IMM 16; conditions: sodium salt
[12] = system: Staph UC76; test: Minimal Inhibitory Concentration, Staph UC76; conditions: sodium salt

Structure (SMILES): CC(=O)N[C@@H](C)C(=O)Nc1ccc2c(=O)c(C(=O)N[C@@H](C(=O)NC3C(=O)N4C(C(=O)O)=C(CSc5nnnn5CS(=O)(=O)O)CSC34)c3ccccc3)c[nH]c2c1 (stereo partly drawn) [Example 1, N-[7-[[L-2-(Acetylamino)-1-oxopropyl]amino]-1,4-dihydro-4-oxo-3-quinolinylcarbonyl]-7-[D-2-amino-2-phenylacetamido]-3-[[(1-sulfomethyl-1H-tetrazol-5-yl)thio]methyl]-3-cephem-4-carboxylic acid]
- MIC [1]: 6.3 µg/mL
- MIC [2]: 3.1 µg/mL
- MIC [3]: 0.8 µg/mL
- MIC [4]: 3.1 µg/mL
- MIC [5]: 0.8 µg/mL
- MIC [6]: > 50 µg/mL
- MIC [7]: 0.8 µg/mL
- MIC [8]: 12.5 µg/mL
- MIC [9]: > 50 µg/mL
- MIC [10]: 6.3 µg/mL
- MIC [11]: 3.2 µg/mL
- MIC [12]: 6.3 µg/mL

Structure (SMILES): CC(=O)N[C@@H](C)C(=O)Nc1ccc2c(=O)c(C(=O)N[C@@H](C(=O)NC3C(=O)N4C(C(=O)O)=C(CSc5nnnn5C)CSC34)c3ccc(O)cc3)c[nH]c2c1 (stereo partly drawn) [Example 2, N-[7-[[L-2-(Acetylamino)-1-oxopropyl]amino]-1,4-dihydro-4-oxo-3-quinolinylcarbonyl]-7-[D-2-amino-2-(4-hydroxyphenyl)acetamido]-3-[[(1-methyl-1H-tetrazol-5-yl)thio]methyl]-3-cephem-4-carboxylic acid]
- MIC [1]: 3.1 µg/mL
- MIC [2]: 3.1 µg/mL
- MIC [3]: 0.4 µg/mL
- MIC [4]: 6.3 µg/mL
- MIC [5]: 0.4 µg/mL
- MIC [6]: > 50 µg/mL
- MIC [7]: 3.1 µg/mL
- MIC [8]: 6.3 µg/mL
- MIC [9]: 25 µg/mL
- MIC [10]: 3.1 µg/mL
- MIC [11]: 0.3 µg/mL
- MIC [12]: 3.1 µg/mL

Structure (SMILES): CC(=O)N[C@@H](C)C(=O)Nc1ccc2c(=O)c(C(=O)N[C@@H](C(=O)NC3C(=O)N4C(C(=O)O)=C(COC(C)=O)CSC34)c3ccc(O)cc3)c[nH]c2c1 (stereo partly drawn) [Example 3, N-[7-[[L-2-(Acetylamino)-1-oxopropyl]amino]-1,4-dihydro-4-oxo-3-quinolinylcarbonyl]-7-[D-2-amino-2-(4-hydroxyphenyl)acetamido]-3-acetoxymethyl-3-cephem-4-carboxylic acid]
- MIC [1]: 12.5 µg/mL
- MIC [2]: 3.1 µg/mL
- MIC [3]: 1.6 µg/mL
- MIC [4]: 3.1 µg/mL
- MIC [5]: 1.6 µg/mL
- MIC [6]: 12.5 µg/mL
- MIC [7]: 6.3 µg/mL
- MIC [8]: 6.3 µg/mL
- MIC [9]: 25 µg/mL
- MIC [10]: 6.3 µg/mL
- MIC [11]: 50 µg/mL
- MIC [12]: 3.1 µg/mL

Structure (SMILES): CC(=O)N[C@@H](CCC(N)=O)C(=O)Nc1ccc2c(=O)c(C(=O)N[C@@H](C(=O)NC3C(=O)N4C(C(=O)O)=C(COC(C)=O)CSC34)c3ccc(O)cc3)c[nH]c2c1 (stereo partly drawn) [Example 4, N-[7-[[L-2-(Acetylamino)-5-amino-1,5-dioxopentyl]amino]-1,4-dihydro-4-oxo-3-quinolinylcarbonyl]-7-[D-2-amino-2-(4-hydroxyphenyl)acetamido]-3-acetoxymethyl-3-cephem-4-carboxylic acid]
- MIC [1]: 12.5 µg/mL
- MIC [2]: 3.1 µg/mL
- MIC [3]: 3.1 µg/mL
- MIC [4]: 12.5 µg/mL
- MIC [5]: 0.8 µg/mL
- MIC [6]: > 50 µg/mL
- MIC [7]: 6.3 µg/mL
- MIC [8]: 6.3 µg/mL
- MIC [9]: 25 µg/mL
- MIC [10]: 6.3 µg/mL
- MIC [11]: > 50 µg/mL
- MIC [12]: 3.1 µg/mL

Structure (SMILES): CC(=O)N[C@@H](CCC(N)=O)C(=O)Nc1ccc2c(=O)c(C(=O)N[C@@H](C(=O)NC3C(=O)N4C(C(=O)O)=C(CSc5nnnn5C)CSC34)c3ccc(O)cc3)c[nH]c2c1 (stereo partly drawn) [Example 5, N-[7-[[L-2-(Acetylamino)-5-amino-1,5-dioxopentyl]amino]-1,4-dihydro-4-oxo-3-quinolinylcarbonyl]-7-[D-2-amino-2-(4-hydroxyphenyl)acetamido]-3-[[(1-methyl-1H-tetrazol-5-yl)thio]methyl]-3-cephem-4-carboxylic acid]
- MIC [1]: 3.1 µg/mL
- MIC [2]: 3.1 µg/mL
- MIC [3]: 0.8 µg/mL
- MIC [4]: 6.3 µg/mL
- MIC [5]: 0.4 µg/mL
- MIC [6]: > 50 µg/mL
- MIC [7]: 3.1 µg/mL
- MIC [8]: 6.3 µg/mL
- MIC [9]: 25 µg/mL
- MIC [10]: 6.3 µg/mL
- MIC [11]: 6.3 µg/mL
- MIC [12]: 3.1 µg/mL

Structure (SMILES): Cn1nnnc1SCC1=C(C(=O)O)N2C(=O)C(NC(=O)[C@H](NC(=O)c3c[nH]c4cc(NC(=O)[C@@H]5CCC(=O)N5)ccc4c3=O)c3ccccc3)C2SC1 (stereo partly drawn) [Example 6, N-[1,4-Dihydro-4-oxo-7-[[(L-5-oxo-2-pyrrolidinyl)carbonyl]amino]-3-quinolinylcarbonyl]-7-[D-2-amino-2-phenylacetamido]-3-[[(1-methyl-1H-tetrazol-5-yl)thio]methyl]-3-cephem-4-carboxylic acid]
- MIC [1]: 6.3 µg/mL
- MIC [2]: 6.3 µg/mL
- MIC [3]: 1.6 µg/mL
- MIC [4]: 12.5 µg/mL
- MIC [5]: 0.8 µg/mL
- MIC [6]: 6.3 µg/mL
- MIC [7]: 6.3 µg/mL
- MIC [8]: 3.1 µg/mL
- MIC [10]: 12.5 µg/mL
- MIC [11]: 25 µg/mL
- MIC [12]: 0.8 µg/mL

Structure (SMILES): CC(=O)N[C@@H](C)C(=O)Nc1ccc2[nH]cc(C(=O)N[C@@H](C(=O)NC3C(=O)N4C(C(=O)O)=C(CSc5nnnn5C)CSC34)c3ccccc3)c(=O)c2c1 (stereo partly drawn) [Example 7, N-[6-[[L-2-(Acetylamino)-1-oxopropyl]amino]-1,4-dihydro-4-oxo-3-quinolinylcarbonyl]-7-[D-2-amino-2-phenylacetamido]-3-[[(1-methyl-1H-tetrazol-5-yl)thio]methyl]-3-cephem-4-carboxylic acid]
- MIC [1]: 12.5 µg/mL
- MIC [2]: 6.3 µg/mL
- MIC [3]: 3.1 µg/mL
- MIC [4]: 6.3 µg/mL
- MIC [5]: 1.6 µg/mL
- MIC [6]: 12.5 µg/mL
- MIC [7]: 3.1 µg/mL
- MIC [8]: 6.3 µg/mL
- MIC [10]: 12.5 µg/mL
- MIC [11]: 25 µg/mL
- MIC [12]: 1.6 µg/mL

Structure (SMILES): CC(=O)N[C@@H](C)C(=O)Nc1ccc2[nH]c(=O)c(C(=O)N[C@@H](C(=O)NC3C(=O)N4C(C(=O)O)=C(COC(C)=O)CSC34)c3ccc(O)cc3)cc2c1 (stereo partly drawn) [Example 8, N-[6-[[L-2-(Acetylamino)-1-oxopropyl]amino]-1,2-dihydro-2-oxo-3-quinolinylcarbonyl]-7-[D-2-amino-2-(4-hydroxyphenyl)acetamido]-3-acetoxymethyl-3-cephem-4-carboxylic acid]
- MIC [1]: 25 µg/mL
- MIC [2]: 3.1 µg/mL
- MIC [3]: 25 µg/mL
- MIC [4]: 3.1 µg/mL
- MIC [5]: 6.3 µg/mL
- MIC [6]: 50 µg/mL
- MIC [7]: 25 µg/mL
- MIC [8]: 6.3 µg/mL
- MIC [10]: 6.3 µg/mL
- MIC [11]: > 50 µg/mL
- MIC [12]: 3.1 µg/mL
